# Reference: patent publication US6828315B1, “1-Amino triazoloc4,3-a! quinazoline-5-ones and/or -5-thiones inhibiting phosphodiesterase IV” (Warner-Lambert LLC, priority 1999, dated 2004)
# pIC50: −log10 of the molar value.
# What was measured:
# [1] = dose of 20 mg as a single intake; cited from earlier work
# [2] = molecular target: type 4 phosphodiesterases (PDE4); test: Inhibition of the phosphodiesterase (PDE4), enzymatic preparation from line U937; assay type: biochemical; details: PDE4 from cytosolic preparation of human cell line U937
# In short: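 PDE4 came from a cytosolic preparation of human U937 cells. Enzymatic activity was measured with inhibitor at 0.1 to 100 μM. IC50 was defined as the concentration inhibiting 50% of enzyme activity.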
# [3] = system: TNFα production by human leukocytes; test: Inhibition of TNFα production by human leukocytes stimulated by lipopolysaccharid; assay type: cell-based; details: Leukocyte; LPS-stimulated human leukocytes in 75% human serum; TNFα by ELISA after 15-18 hours
# Procedure: This test aims to evaluate capacity of the compounds of the invention to inhibit TNFα (tumor necrosis-α) production by human leukocytes in the presence of high human serum concentration (75%). […] The test described here is based on the use of human leukocytes cultivated in 75% of human serum. It had been previously documented that these conditions simulate the observed situation when TNFα dosage is performed in human blood.
# The compounds to test are dissolved into 20 mM (sometimes 6 mM) of DMSO. 100 μl of DMSO are distributed into 7 wells of a a 96 well microtiter plate (wells B to H). 150 μl of the compound solution are distributed into line A wells. 50 μl are then sequentially transferred 7 times. 20 μl of this serial dilutions of compounds are sequentially transferred twice in wells containing 180 μl of RPMI 1640 (Gibco). 50 μl of these dilutions are then transferred in wells where cells will be added.
# Each test includes a series of eight wells without LPS (100% of inhibition), eight wells with LPS (0% of inhibition) and a series of Rolipram dilutions in order to enable comparison of the tests between each other and then to evaluate their variability.
# A leukocyte vial is unfrozen in bain-marie (37° C.), its content is transferred into a 15 ml tube containing 10 ml of RPMI added with 5% of human serum (RPMI-5% HS). The cells are sedimented (800 g, 6 minutes, 4° C.), resuspended in 10 ml of the same medium and counted by dilution in Trypan blue solution. After centrifugating (800 g, 6 minutes, 4° C.), the cells are resuspended to 2×10^6/ml in human serum.
# To 50 μl aliquots of different dilutions of compounds, 100 μl of cells are added. The plates are then incubated 30 minutes at 37° C., then 50 μl of solution 4 μg/ml of LPS prepared in human serum are added. The plates are incubated for the night at 37° C.
# After incubation for 15-18 hours, 90 μl of growth supernatant are taken and transferred into rounded-bottom microtiter wells. The TNFα presence is then evaluated by ELISA (Pharmingen) by using 50 μl of supernatant. The protocol described by the manufacturer is strictly applied.
# [4] = system: TNFα production in plasma; test: In vivo TNFα model in Wistar rat; details: po, 1.5 h, 10 mg/kg p.o. 30 min before LPS i.p., plasma TNFα 90 min after LPS, male Wistar rats, read-out: % Inhibition to 10 mg/kg
# Description: The TFNα is a cytokin playing a central role in inflammation mechanisms. Its production may be induced by injection of lipopolysaccharid (LPS). It has been shown that the intracellular AMPc increase, produced in particular by PDE4 inhibitors, decreases the TNFα production in in vitro and in vivo models. Therefore it matters here to quantify in vivo anti-inflammatory potential of the compounds of the invention, administrated by oral route (p.o.) by measuring inhibition of TNFα production in plasma in rat, the latter having received a intraperitoneal injection (i.p.) of lipolysaccharid (LPS). The treatment by the compounds of the invention or the carrier is administrated by oral route in male Wistar rats, 30 min. before LPS injection. The rats are sacrificed 90 min. after LPS stimulation, the blood is harvested on EDTA and TNFα concentration is measured in each plasma sample.
smiles,measurement,setting,value
COc1ccc([C@]2(C#N)CC[C@@H](C(=O)O)CC2)cc1OC1CCCC1 [Ariflo],adverse events,[1],"significant adverse events, of the nausea and vomiting type"
"CN(C)c1nnc2n(CC=Cc3ccccc3)c(=O)c3cc(Br)ccc3n12 [Compound 85, 7-Bromo-1-dimethylamino-4-(3-phenyl-allyl)-4H-[1,2,4]triazolo[4,3-a]quinazolin-5-one]",pIC50,[2],7.39
same,pIC50,[3],5.17
same,change in vivo at 10 mg/kg,[4],-77%
same,melting point,,171 °C
"COc1ccc(Cn2c(=O)c3cc(C)ccc3n3c(N4CCCC4)nnc23)cc1OC [Compound 94, 4-(3,4-Dimethoxy-benzyl)-7-methyl-1-pyrrolidin-1-yl-4H-[1,2,4]triazolo[4,3-a]quinazolin-5-one]",pIC50,[2],7.54
same,pIC50,[3],5.20
same,change in vivo at 10 mg/kg,[4],-87%
same,melting point,,184 °C
"Cc1ccc2c(c1)c(=O)n(Cc1ccc(C#N)cc1)c1nnc(N(C)C)n21 [Compound 101, 4-(1-Dimethylamino-7-methyl-5-oxo-5H-[1,2,4]triazolo[4,3-a]quinazolin-4-ylmethyl)-benzonitrile]",pIC50,[3],5.07
same,change in vivo at 10 mg/kg,[4],-80%
same,melting point,,201 °C
"Cc1ccc2c(c1)c(=O)n(C/C=C/c1ccccc1)c1nnc(N(C)C)n21 [Compound 103, 1-Dimethylamino-7-methyl-4-((E)-3-phenyl-allyl)-4H-[1,2,4]triazolo[4,3-a]quinazolin-5-one]",pIC50,[2],7.41
same,pIC50,[3],4.97
same,melting point,,171 °C
"CN(C)c1nnc2n(Cc3ccc(C#N)cc3)c(=O)c3cc(Br)ccc3n12 [Compound 79, 4-(7-Bromo-1-dimethylamino-5-oxo-5H-[1,2,4]triazolo[4,3-a]quinazolin-4-ylmethyl)-benzonitrile]",pIC50,[2],6.85
same,pIC50,[3],5.28
same,change in vivo at 10 mg/kg,[4],-72%
same,melting point,,207 °C
"CN(C)c1nnc2n(C/C=C/c3cccnc3)c(=O)c3cc(Br)ccc3n12 [Compound 3, 7-Bromo-1-dimethylamino-4-((E)-3-pyridin-3-yl-allyl)-4H-[1,2,4]triazolo[4,3-a]quinazolin-5-one]",pIC50,[2],7.10
same,pIC50,[3],5.47
same,change in vivo at 10 mg/kg,[4],-98%
"Cc1ccc2c(c1)c(=O)n(Cc1ccc(C#N)cc1)c1nnc(N3CCCC3)n21 [Compound 93, 4-(7-Methyl-5-oxo-1-pyrrolidin-1-yl-5H-[1,2,4]triazolo[4,3-a]quinazolin-4-ylmethyl)-benzonitrile]",pIC50,[3],5.37
same,change in vivo at 10 mg/kg,[4],-67%
same,melting point,,166 °C
"Cc1ccc2c(c1)c(=O)n(CC=Cc1cccnc1)c1nnc(N(C)C)n21 [Compound 104, 1-Dimethylamino-7-methyl-4-(3-pyridin-3-yl-allyl)-4H-[1,2,4]triazolo[4,3-a]quinazolin-5-one]",pIC50,[2],7.11
same,pIC50,[3],5.09
same,change in vivo at 10 mg/kg,[4],-94%
same,melting point,,155 °C
